Assay results from patent US8507528B2, “2-alkyl-indazole compounds for the treatment of certain cns-related disorders” (Aziende Chimiche Riunite Angelini Francesco A.C.R.A.F. …, priority 2006, dated 2013).
Structures can show the parent of a compound that is named as a salt. Where two headings read alike, the source gives them in different places.

Assays:
[1] = molecular target: T1, human serotonin 5-HT2A receptor (Homo sapiens, UniProt P28223); assay: Test B: binding to the human serotonin 5-HT2A receptor; conditions: human recombinant cells, six concentrations; read-out: (h)5-HT2a (pKi) (converted)
T1 construct: expressed in transfected cells
T1 sequence (P28223 whole entry): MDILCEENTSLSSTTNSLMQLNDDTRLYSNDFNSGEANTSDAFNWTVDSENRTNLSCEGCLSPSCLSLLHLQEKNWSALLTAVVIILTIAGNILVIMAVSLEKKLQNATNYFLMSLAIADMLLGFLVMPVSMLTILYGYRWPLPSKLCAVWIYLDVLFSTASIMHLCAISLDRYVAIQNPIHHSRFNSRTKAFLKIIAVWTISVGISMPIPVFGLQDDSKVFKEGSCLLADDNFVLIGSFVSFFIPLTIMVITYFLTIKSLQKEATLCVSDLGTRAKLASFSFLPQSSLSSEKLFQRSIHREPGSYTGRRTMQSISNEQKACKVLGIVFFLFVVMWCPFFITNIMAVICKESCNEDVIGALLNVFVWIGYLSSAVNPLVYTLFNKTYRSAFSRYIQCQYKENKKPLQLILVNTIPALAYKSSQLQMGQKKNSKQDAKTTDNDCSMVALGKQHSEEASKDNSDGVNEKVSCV
Description: (§1) These tests measured the percentage inhibition induced by the compounds of formula (I) according to the present invention at six different concentrations, from which the pKi values of the compounds in relation to the individual receptors were obtained.
Binding to the human serotonin 5-HT2A receptor was effected by the standard methodology described in Bonhaus D. W., Bach C., De Souza A., Salazar F. H., Matsuoka B. D., Zuppan P., Chan H. W., Eglen R. M. (1995) “The pharmacology and distribution of human 5-hydroxytryptamine2B (5-HT2B) receptor gene products: comparison with 5-HT2A and 5-HT2C receptors.” Br. J. Pharmacol. 115(4): 622-628; and Saucier C., Albert P. R. (1997) “Identification of an endogenous 5-hydroxytryptamine2A receptor in NIH-3T3 cells: agonist-induced down-regulation involves decreases in receptor RNA and number.” J. Neurochem. 68(5): 1998-2011. The test compounds were tested in duplicate at a single concentration of 1 μM and then at six concentrations to find the pKi values of the individual compounds.

[2] = molecular target: T2, serotonin 5-HT2C receptor (Homo sapiens, UniProt P28335); assay: Test B: binding to the serotonin 5-HT2C receptor; conditions: human recombinant cells (CHO-K1), six concentrations; read-out: (h)5-HT2c (pKi) (converted)
T2 construct: expressed in transfected cells; host or cells: CHO-K1
T2 sequence (P28335 33-458): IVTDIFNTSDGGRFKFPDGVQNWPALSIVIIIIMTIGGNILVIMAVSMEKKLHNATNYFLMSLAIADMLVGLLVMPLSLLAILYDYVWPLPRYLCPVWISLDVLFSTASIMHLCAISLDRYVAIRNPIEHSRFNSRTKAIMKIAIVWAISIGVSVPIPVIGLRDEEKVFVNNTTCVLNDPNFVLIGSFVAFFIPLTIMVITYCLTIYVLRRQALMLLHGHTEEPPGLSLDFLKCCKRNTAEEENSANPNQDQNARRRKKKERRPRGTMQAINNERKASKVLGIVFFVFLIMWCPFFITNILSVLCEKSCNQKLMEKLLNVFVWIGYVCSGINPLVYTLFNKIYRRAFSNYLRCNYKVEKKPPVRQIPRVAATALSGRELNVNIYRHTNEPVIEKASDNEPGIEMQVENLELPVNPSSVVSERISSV
Description: as §1
Binding to the serotonin 5-HT2C receptor was effected using the standard methodology described in: Wolf W. A. and Schutz J. S. (1997) “The serotonin 5-HT2C receptor is a prominent serotonin receptor in basal ganglia: evidence from functional studies on serotonin-mediated phosphoinositide hydrolysis.” J. Neurochem. 69: 1449-1458. CHO-K1 recombinant cells for expression of the human enzyme were used as starting material, and SB242084 as reference compound. The test compounds were tested in duplicate at a single concentration of 1 μM and then at six concentrations to find the pKi values of the individual compounds.

[3] = molecular target: T3, rat 5-HT2A serotonin receptor (Rattus norvegicus, UniProt P14842); assay: biochemical
T3 sequence (P14842 whole entry): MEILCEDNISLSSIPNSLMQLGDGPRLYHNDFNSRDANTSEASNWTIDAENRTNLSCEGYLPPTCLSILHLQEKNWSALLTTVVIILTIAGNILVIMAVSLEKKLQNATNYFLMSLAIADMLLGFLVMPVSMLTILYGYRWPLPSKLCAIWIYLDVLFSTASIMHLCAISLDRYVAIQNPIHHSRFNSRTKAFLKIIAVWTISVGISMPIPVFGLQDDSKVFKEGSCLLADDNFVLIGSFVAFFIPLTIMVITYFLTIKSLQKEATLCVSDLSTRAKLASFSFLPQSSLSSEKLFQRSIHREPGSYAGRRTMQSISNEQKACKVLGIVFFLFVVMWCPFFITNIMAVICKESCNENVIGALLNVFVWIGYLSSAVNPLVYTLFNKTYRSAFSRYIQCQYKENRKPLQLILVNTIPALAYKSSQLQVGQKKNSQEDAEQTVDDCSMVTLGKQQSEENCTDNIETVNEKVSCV
Description: (§2) The non-specific binding was measured in the presence of 10 μM methysergide. The assay was conducted in Tris-HCl 50 mM buffer (pH 7.4 at 37° C.), with incubation for 2 hours at 37° C. The test compounds were dissolved in DMSO, then diluted in buffer (final DMSO concentration 0.01%) and plated on 96-well plates. Methysergide and/or ketanserin were used as reference compounds.
(§3) Binding is initiated by addition of 200 μl of homogenate (450 μg/ml protein content); after incubation, the membranes were filtered on glass-fibre filters (GF/B) (Unifilter, Packard) treated with 0.3% polyethyleneimine. Then the filters were washed with buffer solution and stove-dried for 30 minutes at 45° C. The scintillation liquid was added to each well, and 10 hours later the radioactivity was measured for 1 minute using a TopCount (Packard). The test compounds were tested in duplicate at 8 concentrations (from 10^-12 to 10^-5 M).
(§4) The IC50 values for each compound were calculated using non-linear regression analysis (GraphPad PRISM software) and the inhibition constants Ki were determined using the equation described by Cheng Y. and Prussof W. H. (1973) “Relationship between the inhibition constant (Ki) and the concentration of inhibitor which causes 50 percent inhibition (150) of an enzyme reaction.” Biochem. Pharmacol. 22: 3099-3108.

[4] = molecular target: T3, rat 5-HT2A serotonin receptor
Description: as §2, §3, §4

Compound | melting point | Ki [3] | further results
Cl.Cn1nc2ccccc2c1C(=O)NC1CCN(CCc2ccc(F)cc2)CC1 | 224 to 228 °C | – | –
Cn1nc2ccccc2c1C(=O)NCC1CCN(CCc2ccccc2)CC1 [Compound 1, 2-Methyl-N-{[1-(2-phenylethyl)piperidin-4-yl]methyl}-2H-indazole-3-carboxamide hydrochloride hydrate] | – | 0.0324 µM | Ki [1]: 0.00263 µM; Ki [2]: 0.0891 µM
Cl.Cn1nc2ccccc2c1C(=O)NCC1CCN(CCc2ccc(F)cc2)CC1 [Compound 8, N-({1-[2-(4-Fluorophenyl)ethyl]piperidin-4-yl}methyl)-2-methyl-2H-indazole-3-carboxamide hydrochloride] | 208 to 209 °C | 0.0158 µM | Ki [1]: 0.00162 µM; Ki [2]: 0.0537 µM
Cn1nc2ccccc2c1C(=O)NC1CCN(CCc2ccccc2F)CC1 [Compound 18, N-{1-[2-(2-fluorophenyl)ethyl)piperidin-4-yl}-2-methyl-2H-indazole-3-carboxamide] | 164 to 166 °C | – | –
Cn1nc2ccccc2c1C(=O)NCCCN1CCC(c2ccc(F)cc2)CC1 [Compound 20, N-{3-[4-(4-fluorophenyl)piperidin-1-yl]propyl}-2-methyl-2H-indazole-3-carboxamide] | 136 to 140 °C | – | –
Cn1nc2ccccc2c1C(=O)NC1CCN(CCCc2ccc(F)cc2)CC1 [Compound 22, N-{1-[3-(4-fluorophenyl)propyl]piperidin-4-yl}-2-methyl-2H-indazole-3-carboxamide] | 162 to 165 °C | – | –
Cn1nc2ccccc2c1C(=O)NCC1CCN(CCc2ccc(F)cc2F)CC1 [Compound 23, N-({1-[2-(2,4-difluorophenyl)ethyl]piperidin-4-yl}methyl)-2-methyl-2H-indazole-3-carboxamide] | 122 to 126 °C | – | –
N,2-Dimethyl-N-{[1-(2-phenylethyl)piperidin-4-yl]methyl}-2H-indazole-3-carboxamide hydrochloride hemihydrate [Compound 2] | – | – | Ki [4]: 0.813 µM

Now from value to compound, other results behind:

melting point | Ki [3] | Compound | further results
– | 0.0479 µM | Cn1nc2ccccc2c1C(=O)NCC1CCN(CCc2ccc(O)cc2)CC1 [Compound 3, N3-({1-[2-(4-Hydroxyphenyl)ethyl]hexahydro-4-pyridinyl}methyl-2-methyl-2H-3-indazolecarboxamide hydrochloride hydrate] | Ki [1]: 0.00209 µM; Ki [2]: 0.148 µM
218 to 219 °C (dec.) | 0.0479 µM | COc1ccc2nn(C)c(C(=O)NCC3CCN(CCc4ccc(O)cc4)CC3)c2c1 [Compound 4, N-({1-[2-(4-Hydroxyphenyl)ethyl]piperidin-4-yl}methyl)-5-methoxy-2-methyl-2H-indazole-3-carboxamide] | –
80 °C (dec.) | 1.58 µM | COc1ccc(CCN2CCC(CNC(=O)c3c4ccccc4nn3C)CC2)cc1.Cl [Compound 5, N-({1-[2-(4-Methoxyphenyl)ethyl]piperidin-4-yl}methyl)-2-methyl-2H-indazole-3-carboxamide hydrochloride] | –
193 to 194 °C | 0.0912 µM | COCCn1nc2ccccc2c1C(=O)NCC1CCN(CCc2ccc(F)cc2)CC1.Cl [Compound 7, N-({1-[2-(4-Fluorophenyl)ethyl]piperidin-4-yl}methyl)-2-(2-methoxyethyl)-2H-indazole-3-carboxamide hydrochloride] | –
– | 0.631 µM | Cn1nc2ccccc2c1C(=O)N1CCC(CNCCc2ccc(F)cc2F)CC1 [Compound 9, 2-(2,4-Difluorophenyl)-N-({1-[(2-methyl-2H-indazole-3-yl)carbonyl]piperidin-4-yl}methyl)ethanamine hydrochloride] | –
198 to 199 °C | 0.263 µM | Cl.Cn1nc2ccccc2c1C(=O)N1CCC(CNCCc2ccc(F)cc2)CC1 [Compound 10, 2-(4-Fluorophenyl)-N-({1-[(2-methyl-2H-indazol-3-yl)carbonyl)piperidin-4-yl}methyl]ethanamine hydrochloride] | –
117 to 119 °C | – | Cn1nc2ccccc2c1C(=O)NC1CCN(CCc2ccc(F)cc2)C1 (stereo not shown) [Compound 15, N-{1-[2-(4-fluorophenyl)ethyl]pyrrolidin-3-yl}-2-methyl-2H-indazole-3-carboxamide] | –
174 to 176 °C | – | Cn1nc2ccccc2c1C(=O)NCC1CCN(CCc2ccc(C(F)(F)F)cc2)CC1 [Compound 17, 2-methyl-N-[(1-{2-[4-(trifluoromethyl)phenyl]ethyl}piperidin-4-yl)methyl]-2H-indazole-3-carboxamide] | –
167 to 169 °C | – | Cn1nc2ccccc2c1C(=O)NC1CCN(Cc2ccccc2)CC1 [Compound 21, N-(1-benzylpiperidin-4-yl)-2-methyl-2H-indazole-3-carboxamide] | –
